In article PMC9569790, “From Solution Studies of Pharmaceuticals (Aspirin and Related Compounds) to the Thermodynamics of Aspirin-β-Cyclodextrin Interaction in water and N,N-Dimethylformamide” (International Journal of Molecular Sciences, 2022):
Like-named read-outs stand apart in the source and are kept apart here. Marks after values point to notes of the source that are not given here. Blank lines part the entries; values can stand above or below the compound they belong to.

Columns and labels:
[1] = water, same temperature, conductimetry; cited from earlier work
[2] = Gibbs free energy and entropies of solution in water, corrected for ion-pair formation; type: physicochemical; conditions: 298.15 K; for pKsp: corrected for ion-pair formation; for ΔsG^0, standard Gibbs energy of solution: standard state 1 mol dm^−3
Description: In Equation (2), concentrations are in mol dm^−3, and γ ± i^2 is the mean molar ionic coefficient calculated by the use of the Debye–Hückel equation, where γHA is the activity coefficient of the un-ionized species. In very dilute solutions, γHA may be considered equal to unity. As far as the standard Gibbs energy of the solution in the standard state of 1 mol dm^−3, ∆sG^0, is concerned, the application of Equation (3) requires knowledge of the ion-pair formation constant in solution. The availability of Kip and solubilities in water allows the calculation the ionic molar concentration, ci, and the molar concentration of ion pairs, cip, as previously shown. The data refer to the standard state (1 mol dm^−3). ΔsG^0= −RTln (ci^2 * γ±i^2)(3)
In Equation (6), aH^+ and aA^− represent the activities of the species H^+ and A^− in solution respectively. The activity of the solid is unity by convention. The activity, a, on the molar scale (mol dm^−3) is related to the ionic molar concentration, ci, by the mean molar ionic activity coefficient, γ ± i.
Thus:K^0sp = ci^2 ∗ γ ± i^2 (7)
The availability of Gibbs energy (Equation (3)) and enthalpy values allows the calculation of the entropy of solution, ΔsS. For this purpose, the following equation was used.

[3] = Calorimetric enthalpies of solution in DMF; type: physicochemical; conditions: 298.15 K; for ΔsH^0, standard enthalpy of solution: average of the ΔsH values
Description: All observed heats were corrected for the heat from breaking the empty ampoules in DMF (Q = −0.0518 J). Since there were no systematic changes in the ΔsH values with changes in the concentration of the solute, the reported standard ΔsH^0 values are the average values of the data reported in Table 5. This table also includes the standard deviations of the data.
(§1) The reliability of the calorimeter was checked by carrying out the standard reaction based on the protonation of an aqueous solution of tris-(hydroxymethyl)aminomethane (THAM) with an aqueous solution of hydrochloric acid (0.1 mol dm^−3) at 298.15 K (Equation (11)). H2NC(CH2OH)3(aq) + H3O+ (aq) → H3N+C(CH2OH)3(aq) + H2O(aq)(11)
(§2) The system was then placed in a water bath until thermal equilibrium was attained, after which the ampoule was broken into the solvent and the process was monitored by the chart recorder. The observed heat was corrected for the heat of the breaking of the empty ampoule in the solvent. The standard enthalpy of the solution, ∆sH^0, was found from […].

[4] = Solvate formation test in a solvent-saturated atmosphere; type: physicochemical; conditions: water
Experimental: (§3) The mixtures were left in a thermostatic bath at 298.15 K until equilibrium was reached. Aliquots of the saturated solutions were removed and analyzed gravimetrically by taking a known volume of sample, evaporating the solvent and then weighing the solid in a dry atmosphere. The weighing process was repeated until a constant weight was obtained. The analytical determination was carried out in triplicate on the same equilibrium mixture. Solvate formation was tested by storing the compounds over water or DMF in a desiccator containing an atmosphere saturated with the appropriate solvent over a period of at least four days.

[5] = Conductance measurements in water; type: physicochemical; conditions: for Ionic conductivity at infinite dilution of the anion, λA^−: from Λ^0m and λH^+ = 349.8
Experimental: H^+ (aq) + A^− (aq) ⇌ HA (aq)(1)
The ion-pair formation constant for the process described by Equation (1) is expressed in terms of activities, a, as shown in Equation (2): (2) Kip=aHA/aH^+∗aA^−=HA∗γHA/H^+∗[A^−]∗γ±i^2
The conductivity cell constant was determined by the method of Jones and Bradshaw [39] as previously reported [24]. Conductance measurements were performed using the Wayne Kerr Autobalance Universal Bridge, type B642, and the Wayne Kerr Model 7330 Automatic LCR Meter Conductivity Bridge at a frequency of 1 Hz. […] Conductance readings at 298.15 K were recorded after each addition.

[6] = Calorimetric enthalpies of solution in water; type: physicochemical; conditions: 298.15 K; for ΔsH^0, standard enthalpy of solution: average of the ΔsH values
Description: No measurements could be carried out at higher concentrations since the dissolution rate of this compound in water was relatively slow. […] Since there were no systematic changes in the ΔsH values with changes in the concentration of solute, the standard ΔsH^0 value reported in Table 3 is the average value. In the dissolution of a solute in water or any other solvent, there are two processes involved, as described in Equation (5):ΔsH^0 = ΔclH^0 + ΔsolvH^0(5)
as §1, §2

[7] = Transfer thermodynamic parameters from water to DMF; type: physicochemical; conditions: 298.15 K
Description: As mentioned earlier, ΔsH^0 is made by the contribution of the crystal lattice enthalpy and the solvation enthalpy. In order to remove the contribution of the crystal lattice process, it is a common practice to calculate the transfer thermodynamic parameters according to the following process: […]

[8] = Solubility measurements (gravimetric analysis of saturated solutions) in water; type: physicochemical
Experimental: as §3

[9] = Conductance measurements in DMF; type: physicochemical; conditions: 298.15 K
Experimental: Conductance measurements were performed using the Wayne Kerr Autobalance Universal Bridge, type B642, and the Wayne Kerr Model 7330 Automatic LCR Meter Conductivity Bridge at a frequency of 1 Hz. […] Conductance readings at 298.15 K were recorded after each addition.

[10] = water; cited from earlier work
[11] = Interaction of acetylsalicylic acid with β-cyclodextrin in DMF (titration calorimetry); type: binding; conditions: nonionized guest, 298 K
Experimental: For deriving the thermodynamic parameters of the interaction of cyclodextrin and these pharmaceuticals in these solvents, the four-channel microcalorimeter was used.
The latter was added from a 2 cm^3 burette connected by a silicone tube to the reaction vessel after thermal equilibrium was reached. These experiments were carried out in duplicate. For each solvent, blank experiments were performed to account for the dilution effects resulting from the addition of the appropriate anion salt to the solvent placed in the calorimetric vessel.

[12] = set-up: method as in PMID 16509753; conditions: water, 298 K, cited from earlier work
[13] = water, cited from earlier work

Ionic conductivity at infinite dilution of the anion, λA^− ([5]; water, 298.15 K): 42.2 S cm^2 mol^−1
SMILES: CC(=O)Oc1ccccc1C(=O)O [acetylsalicylate]

Speciation in solution from conductance [9]: undissociated
ΔsS^0, entropy of solution [2]: −67 J K^−1 mol^−1
pKsp [2]: 5.45
ΔsG^0, standard Gibbs energy of solution [2]: 7.43 kcal/mol
ΔsH^0, standard enthalpy of solution [3]: 1.86 ± 0.048 kcal/mol
ΔsH, enthalpy of solution ([3]; c = 1.10 × 10^−3 mol dm^−3): 1.79 kcal/mol
ΔsH, enthalpy of solution ([3]; c = 1.48 × 10^−3 mol dm^−3): 1.8 kcal/mol
ΔsH, enthalpy of solution ([3]; c = 5.74 × 10^−4 mol dm^−3): 1.96 kcal/mol
ΔsH, enthalpy of solution ([3]; c = 6.42 × 10^−4 mol dm^−3): 1.87 kcal/mol
ΔsH, enthalpy of solution ([3]; c = 8.62 × 10^−4 mol dm^−3): 1.84 kcal/mol
ΔsH, enthalpy of solution ([3]; c = 9.10 × 10^−4 mol dm^−3): 1.87 kcal/mol
Solvate formation [4]: not detected
Ka, dissociation constant ([5]; water, 298.15 K): 1.75 × 10^−4
Kip, ion-pair formation constant ([5]; water, 298.15 K): 57 × 10^2
Λ^0m, molar conductance at infinite dilution ([5]; water, 298.15 K): 392 S cm^2 mol^−1
Fraction hydrolyzed at the end of the conductance measurements ([5]; water, estimated from data of Pierre and Jencks [25]): 5%
ΔsH^0, standard enthalpy of solution ([6]; listed as Acetylsalicylic Acid): ΔsH^0 = 11.1 ± 0.6 kJ mol^−1
ΔsH^0, standard enthalpy of solution ([6]; listed as Acetylsalicylic acid): 2.65 kcal/mol
ΔsH, enthalpy of solution ([6]; c = 2.40 × 10^−4 mol dm^−3): 2.823 kcal/mol
ΔsH, enthalpy of solution ([6]; c = 3.51 × 10^−4 mol dm^−3): 2.5 kcal/mol
ΔsH, enthalpy of solution ([6]; c = 4.66 × 10^−4 mol dm^−3): 2.44 kcal/mol
ΔsH, enthalpy of solution ([6]; c = 5.13 × 10^−4 mol dm^−3): 2.646 kcal/mol
ΔsH, enthalpy of solution ([6]; c = 5.26 × 10^−4 mol dm^−3): 2.686 kcal/mol
ΔsH, enthalpy of solution ([6]; c = 5.99 × 10^−4 mol dm^−3): 2.799 kcal/mol
Solubility, S [8]: (2.20 ± 0.28) ∗ 10^−2 mol dm^−3
ΔtH^0, enthalpy of transfer [7]: -0.789 kcal/mol
SMILES: CC(=O)Oc1ccccc1C(=O)O [acetylsalicylic acid, reference compound]
Apparent enthalpy of solution (literature, van ’t Hoff equation) [10]: 5.47 kcal/mol
log Kass [11]: 4.66 ± 0.03 ^b
log Kass ([12]; pH 1.75, nonionized guest, calculated from Kass of ref 15): 2.74 ^a
log Ks ([12]; pH 6.00, ionized guest, calculated from Ks of ref 15): 1.71 ^a
Solubility (literature, molar scale) ([13]; 299.65 K): 2.31 × 10^−2 mol dm^−3
Solubility (literature) [13]: 1.78 × 10^−2 mol/dm^−3

Further lines, the compound ahead of its results:

SMILES: CC(=O)Oc1ccc(C(=O)O)cc1 [4-acetoxybenzoic acid]
pKa (literature) [1]: 4.38
ΔsS^0, entropy of solution [2]: −58 J K^−1 mol^−1
pKsp [2]: 6.57
ΔsG^0, standard Gibbs energy of solution [2]: 8.96 kcal/mol
ΔsH^0, standard enthalpy of solution [3]: 0.932 ± 0.024 kcal/mol
ΔsH, enthalpy of solution ([3]; c = 1.03 × 10^−3 mol dm^−3): 0.93 kcal/mol
ΔsH, enthalpy of solution ([3]; c = 1.18 × 10^−3 mol dm^−3): 0.98 kcal/mol
ΔsH, enthalpy of solution ([3]; c = 1.26 × 10^−3 mol dm^−3): 0.949 kcal/mol
ΔsH, enthalpy of solution ([3]; c = 1.60 × 10^−3 mol dm^−3): 0.954 kcal/mol
ΔsH, enthalpy of solution ([3]; c = 1.82 × 10^−3 mol dm^−3): 0.908 kcal/mol
Solvate formation [4]: not detected
Ka, dissociation constant ([5]; water, 298.15 K): 4.55 × 10^−5
Kip, ion-pair formation constant ([5]; water, 298.15 K): 22 × 10^3
Λ^0m, molar conductance at infinite dilution ([5]; water, 298.15 K): 401 S cm^2 mol^−1
pKa ([5]; water, 298.15 K, conductance, read-out: pKa): 4.34
ΔsH^0, standard enthalpy of solution [6]: 4.78 kcal/mol
ΔsH^0, standard enthalpy of solution ([6]; listed as 4-Acetoxybenzoic Acid): ΔsH^0 = 20 ± 1 kJ mol^−1
ΔsH, enthalpy of solution ([6]; c = 4.51 × 10^−4 mol dm^−3): 4.52 kcal/mol
ΔsH, enthalpy of solution ([6]; c = 4.57 × 10^−4 mol dm^−3): 4.381 kcal/mol
ΔsH, enthalpy of solution ([6]; c = 4.66 × 10^−4 mol dm^−3): 4.84 kcal/mol
ΔsH, enthalpy of solution ([6]; c = 4.90 × 10^−4 mol dm^−3): 4.902 kcal/mol
ΔsH, enthalpy of solution ([6]; c = 6.17 × 10^−4 mol dm^−3): 4.928 kcal/mol
ΔsH, enthalpy of solution ([6]; c = 6.75 × 10^−4 mol dm^−3): 5.017 kcal/mol
ΔtH^0, enthalpy of transfer [7]: -3.85 kcal/mol

SMILES: CC(=O)c1ccc(O)c(C(=O)O)c1 [5-acetylsalicylate]
Ionic conductivity at infinite dilution of the anion, λA^− ([5]; water, 298.15 K): 39.2 S cm^2 mol^−1

SMILES: CC(=O)c1ccc(O)c(C(=O)O)c1 [5-acetylsalicylic acid]
ΔsS^0, entropy of solution [2]: −15 J K^−1 mol^−1
pKsp [2]: 5.74
ΔsG^0, standard Gibbs energy of solution [2]: 7.82 kcal/mol
ΔsH^0, standard enthalpy of solution [3]: 1.63 ± 0.048 kcal/mol
ΔsH, enthalpy of solution ([3]; c = 1.11 × 10^−3 mol dm^−3): 1.58 kcal/mol
ΔsH, enthalpy of solution ([3]; c = 1.45 × 10^−3 mol dm^−3): 1.59 kcal/mol
ΔsH, enthalpy of solution ([3]; c = 1.76 × 10^−3 mol dm^−3): 1.57 kcal/mol
ΔsH, enthalpy of solution ([3]; c = 2.07 × 10^−3 mol dm^−3): 1.59 kcal/mol
ΔsH, enthalpy of solution ([3]; c = 2.18 × 10^−3 mol dm^−3): 1.69 kcal/mol
ΔsH, enthalpy of solution ([3]; c = 2.38 × 10^−3 mol dm^−3): 1.66 kcal/mol
Solvate formation [4]: not detected
pKa [5]: 3.04
Ka, dissociation constant ([5]; water, 298.15 K): 9.09 × 10^−4
Kip, ion-pair formation constant ([5]; water, 298.15 K): 11 × 10^2
Λ^0m, molar conductance at infinite dilution ([5]; water, 298.15 K): 389 S cm^2 mol^−1
ΔsH^0, standard enthalpy of solution [6]: 6.74 kcal/mol
ΔsH^0, standard enthalpy of solution ([6]; listed as 5-Acetylsalicylic Acid): ΔsH^0 = 28.2 ± 0.3 kJ mol^−1
ΔsH, enthalpy of solution ([6]; c = 2.58 × 10^−4 mol dm^−3): 6.862 kcal/mol
ΔsH, enthalpy of solution ([6]; c = 2.66 × 10^−4 mol dm^−3): 6.795 kcal/mol
ΔsH, enthalpy of solution ([6]; c = 4.49 × 10^−4 mol dm^−3): 6.74 kcal/mol
ΔsH, enthalpy of solution ([6]; c = 6.67 × 10^−4 mol dm^−3): 6.663 kcal/mol
ΔsH, enthalpy of solution ([6]; c = 7.05 × 10^−4 mol dm^−3): 6.807 kcal/mol
ΔsH, enthalpy of solution ([6]; c = 8.05 × 10^−4 mol dm^−3): 6.673 kcal/mol
Solubility, S [8]: (3.46 ± 0.22) ∗ 10^−3 mol dm^−3
ΔtH^0, enthalpy of transfer [7]: -5.11 kcal/mol
